From patent US20110244049A1, “COMPOSITIONS COMPRISING 4-(2-(5-BROMO-4-(1-CYCLOPROPYLNAPHTHALEN-4-YL)-4H-1,2,4-TRIAZOL-3-YLTHIO)ACETAMIDO)-3-CHLOROBENZOIC ACID AND PHARMACEUTICALLY ACCEPTABLE SALTS THEREOF, AND METHODS FOR PREPARING AND USING SAME” (ARDEA BIOSCIENCES INC., priority 2008, published 2011)

Test system: serum uric acid
Assay: Serum uric acid levels on day 9 of the study (Example 6)
Type: in vivo, human
Procedure: Human clinical studies using the compositions described in examples 2A, 3A, 4A, 5A were conducted as described: A multi-center, double-blind, placebo-controlled study in 48 treatment-naïve HIV-1-infected subjects, randomized 3:1 (treatment:placebo). Patients were male, 18-65 years with chronic HIV infection, but no history of AIDS-defining illness. Patients were antiretroviral treatment naïve or <14 days prior therapy and had no pre-existing RTI or PI drug resistance and no co-infection with acute HAV, chronic HBV, active HCV. Patient CD4+ cell count was ≧50 cells/mm^3 for 2 cohorts, then ≧200 cells/mm^3 or ≧350 cells/mm^3 depending on site.
The compositions were administered over a 7-day treatment period plus one morning dose for PK purposes on day 8. (It should be noted that in some instances multiple doses of the same composition were administered, in order to achieve the required total dose of compound 1; i.e.in order to achieve a dose of 400 mg compound 1, a patient may have taken four 100 mg compositions or two 200 mg compositions, depending on the dosage form.) Four sequential dose cohorts were administered as follows:
Serum uric acid levels were recorded on day 9 of the study, and are shown in the table below and graphically in FIG. 8.

O=C(CSc1nnc(Br)n1-c1ccc(C2CC2)c2ccccc12)Nc1ccc(C(=O)O)cc1Cl [Compound 1, 4-(2-(5-bromo-4-(1-cyclopropylnaphthalen-4-yl)-4H-1,2,4-triazol-3-ylthio)acetamido)-3-chlorobenzoic acid]
Mean serum UA reduction (400 mg BID): −30% | Mean serum UA reduction (600 mg QD): −21% | Mean serum UA reduction (800 mg QD): −21% | Mean serum UA reduction (1000 mg QD): −28%
